Where “and” joins values, the source holds several entries; their conditions need not be identical. Equal entries are not always repeated. Calls of active or inactive are those of the source. The calls are words filed in the database; no cut-off is given here.
How the values were obtained:
[1] = test system: Tyrosine-protein kinase ABL1 (Homo sapiens), P00519 [F317I]; assay: Inhibition of phosphorylated human ABL1 F317I mutant assessed as percent of control at 2000 nM by KINOMEscan assay relative to control; design: scale not given: the % may be the effect or the level left
[2] = target: 5'-AMP-activated protein kinase catalytic subunit alpha-1 (Homo sapiens) (UniProt Q13131); assay: Inhibition of human AMPK-alpha1 assessed as percent of control at 2000 nM by KINOMEscan assay relative to control; design: scale not given: the % may be the effect or the level left
[3] = target: Dual specificity mitogen-activated protein kinase kinase 5 (Homo sapiens) (UniProt Q13163); assay: Inhibition of human MEK5 assessed as percent of control at 2000 nM by KINOMEscan assay relative to control; design: scale not given: the % may be the effect or the level left
[4] = target: Serine/threonine-protein kinase ULK2 (Homo sapiens) (UniProt Q8IYT8); assay: Inhibition of human ULK2 assessed as percent of control at 2000 nM by KINOMEscan assay relative to control; design: scale not given: the % may be the effect or the level left
[5] = test system: Tyrosine-protein kinase ABL1 (Homo sapiens), P00519 [Y253F]; assay: Inhibition of phosphorylated human ABL1 Y253F mutant assessed as percent of control at 2000 nM by KINOMEscan assay relative to control; design: scale not given: the % may be the effect or the level left
[6] = test system: Epidermal growth factor receptor (Homo sapiens), P00533 [UNDEFINED MUTATION]; assay: Inhibition of human EGFR L747-T751del/Sins double mutant assessed as percent of control at 2000 nM by KINOMEscan assay relative to control; design: scale not given: the % may be the effect or the level left
[7] = target: Myosin light chain kinase family member 4 (Homo sapiens) (UniProt Q86YV6); assay: Inhibition of human MYLK4 assessed as percent of control at 2000 nM by KINOMEscan assay relative to control; design: scale not given: the % may be the effect or the level left
[8] = target: Tyrosine-protein kinase receptor Tie-1 (Homo sapiens) (UniProt P35590); assay: Inhibition of human TIE1 assessed as percent of control at 2000 nM by KINOMEscan assay relative to control; design: scale not given: the % may be the effect or the level left
[9] = target: Protein-tyrosine kinase 6 (Homo sapiens) (UniProt Q13882); assay: Inhibition of human BRK assessed as percent of control at 2000 nM by KINOMEscan assay relative to control; design: scale not given: the % may be the effect or the level left
[10] = target: Beta-adrenergic receptor kinase 1 (Homo sapiens) (UniProt P25098); assay: Inhibition of human GRK2 assessed as percent of control at 2000 nM by KINOMEscan assay relative to control; design: scale not given: the % may be the effect or the level left
[11] = target: TGF-beta receptor type-2 (Homo sapiens) (UniProt P37173); assay: Inhibition of human TGFBR2 assessed as percent of control at 2000 nM by KINOMEscan assay relative to control; design: scale not given: the % may be the effect or the level left
[12] = test system: Phosphatidylinositol 4,5-bisphosphate 3-kinase catalytic subunit alpha isoform (Homo sapiens), P42336 [I800L]; assay: Inhibition of human PIK3CA I800L mutant assessed as percent of control at 2000 nM by KINOMEscan assay relative to control; design: scale not given: the % may be the effect or the level left
[13] = target: Serine/threonine-protein kinase WNK1 (Homo sapiens) (UniProt Q9H4A3); assay: Inhibition of human WNK1 assessed as percent of control at 2000 nM by KINOMEscan assay relative to control; design: scale not given: the % may be the effect or the level left
Sequence of Serine/threonine-protein kinase WNK1 (Homo sapiens) (Q9H4A3 whole entry, looked up): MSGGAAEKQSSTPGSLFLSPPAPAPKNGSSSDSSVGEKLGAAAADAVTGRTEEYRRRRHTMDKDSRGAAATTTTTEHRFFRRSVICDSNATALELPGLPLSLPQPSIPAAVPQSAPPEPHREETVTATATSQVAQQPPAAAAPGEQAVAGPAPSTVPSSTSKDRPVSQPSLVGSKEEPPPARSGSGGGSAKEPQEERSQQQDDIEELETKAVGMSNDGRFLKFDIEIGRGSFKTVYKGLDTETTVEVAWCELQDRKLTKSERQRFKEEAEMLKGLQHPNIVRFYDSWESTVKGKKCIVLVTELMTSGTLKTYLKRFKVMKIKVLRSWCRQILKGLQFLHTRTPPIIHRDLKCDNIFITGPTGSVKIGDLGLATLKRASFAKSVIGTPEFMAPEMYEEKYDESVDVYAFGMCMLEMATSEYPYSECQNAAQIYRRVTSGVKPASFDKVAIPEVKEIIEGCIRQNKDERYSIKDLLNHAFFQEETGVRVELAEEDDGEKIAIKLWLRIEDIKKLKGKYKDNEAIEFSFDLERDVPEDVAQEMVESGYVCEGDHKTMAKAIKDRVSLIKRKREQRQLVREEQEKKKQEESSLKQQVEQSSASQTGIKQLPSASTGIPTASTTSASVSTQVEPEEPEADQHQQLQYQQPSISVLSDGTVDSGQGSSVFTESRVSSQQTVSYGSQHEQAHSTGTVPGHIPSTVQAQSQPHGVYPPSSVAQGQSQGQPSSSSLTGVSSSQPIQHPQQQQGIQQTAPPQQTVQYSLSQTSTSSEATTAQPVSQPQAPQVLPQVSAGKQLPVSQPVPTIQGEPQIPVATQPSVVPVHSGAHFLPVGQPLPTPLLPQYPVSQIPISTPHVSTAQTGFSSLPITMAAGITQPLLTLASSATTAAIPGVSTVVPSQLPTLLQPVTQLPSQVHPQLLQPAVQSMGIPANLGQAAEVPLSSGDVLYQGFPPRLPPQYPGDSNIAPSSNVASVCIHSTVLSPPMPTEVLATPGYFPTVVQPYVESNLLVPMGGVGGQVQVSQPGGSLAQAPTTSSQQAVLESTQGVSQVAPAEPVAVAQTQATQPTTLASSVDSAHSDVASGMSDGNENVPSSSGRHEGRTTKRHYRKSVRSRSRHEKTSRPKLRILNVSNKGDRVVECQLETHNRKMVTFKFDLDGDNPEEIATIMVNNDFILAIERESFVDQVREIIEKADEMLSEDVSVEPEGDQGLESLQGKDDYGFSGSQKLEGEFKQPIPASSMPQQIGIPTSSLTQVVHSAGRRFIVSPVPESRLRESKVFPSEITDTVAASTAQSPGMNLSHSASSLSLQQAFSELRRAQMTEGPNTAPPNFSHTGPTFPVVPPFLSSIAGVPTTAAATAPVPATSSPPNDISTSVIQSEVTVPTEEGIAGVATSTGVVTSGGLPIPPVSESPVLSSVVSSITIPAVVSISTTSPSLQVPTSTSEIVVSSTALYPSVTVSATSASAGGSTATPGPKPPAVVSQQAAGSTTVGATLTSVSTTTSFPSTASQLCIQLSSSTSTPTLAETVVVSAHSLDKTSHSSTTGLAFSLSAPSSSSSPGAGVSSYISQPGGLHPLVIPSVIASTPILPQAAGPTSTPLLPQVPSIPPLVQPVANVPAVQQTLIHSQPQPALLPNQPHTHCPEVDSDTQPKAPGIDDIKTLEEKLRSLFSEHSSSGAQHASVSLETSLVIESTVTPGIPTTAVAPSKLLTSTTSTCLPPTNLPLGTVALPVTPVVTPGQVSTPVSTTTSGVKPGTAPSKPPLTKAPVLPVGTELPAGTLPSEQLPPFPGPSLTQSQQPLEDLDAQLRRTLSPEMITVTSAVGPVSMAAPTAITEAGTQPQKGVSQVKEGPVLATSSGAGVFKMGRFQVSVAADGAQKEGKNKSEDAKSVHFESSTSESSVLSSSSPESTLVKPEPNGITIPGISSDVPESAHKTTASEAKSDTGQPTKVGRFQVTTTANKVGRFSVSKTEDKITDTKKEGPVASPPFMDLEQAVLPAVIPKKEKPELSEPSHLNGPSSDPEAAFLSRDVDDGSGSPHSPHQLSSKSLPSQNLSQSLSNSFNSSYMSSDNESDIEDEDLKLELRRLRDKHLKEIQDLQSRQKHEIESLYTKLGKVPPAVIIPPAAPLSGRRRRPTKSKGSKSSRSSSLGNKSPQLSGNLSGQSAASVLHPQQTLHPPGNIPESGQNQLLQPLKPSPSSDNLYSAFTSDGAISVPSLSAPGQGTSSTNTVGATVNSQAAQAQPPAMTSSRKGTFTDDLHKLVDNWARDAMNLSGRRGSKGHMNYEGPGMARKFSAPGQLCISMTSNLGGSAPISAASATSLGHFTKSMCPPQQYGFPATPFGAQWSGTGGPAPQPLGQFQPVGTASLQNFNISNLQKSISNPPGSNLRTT

[14] = target: Fibroblast growth factor receptor 3 (Homo sapiens) (UniProt P22607); assay: Inhibition of human FGFR3 assessed as percent of control at 2000 nM by KINOMEscan assay relative to control; design: scale not given: the % may be the effect or the level left
[15] = target: Serine/threonine-protein kinase Nek9 (Homo sapiens) (UniProt Q8TD19); assay: Inhibition of human NEK9 assessed as percent of control at 2000 nM by KINOMEscan assay relative to control; design: scale not given: the % may be the effect or the level left
[16] = target: Ephrin type-A receptor 6 (Homo sapiens) (UniProt Q9UF33); assay: Inhibition of human EPHA6 assessed as percent of control at 2000 nM by KINOMEscan assay relative to control; design: scale not given: the % may be the effect or the level left
[17] = target: SRSF protein kinase 2 (Homo sapiens) (UniProt P78362); assay: Inhibition of human SRPK2 assessed as percent of control at 2000 nM by KINOMEscan assay relative to control; design: scale not given: the % may be the effect or the level left
Sequence of SRSF protein kinase 2 (Homo sapiens) (P78362 whole entry, looked up): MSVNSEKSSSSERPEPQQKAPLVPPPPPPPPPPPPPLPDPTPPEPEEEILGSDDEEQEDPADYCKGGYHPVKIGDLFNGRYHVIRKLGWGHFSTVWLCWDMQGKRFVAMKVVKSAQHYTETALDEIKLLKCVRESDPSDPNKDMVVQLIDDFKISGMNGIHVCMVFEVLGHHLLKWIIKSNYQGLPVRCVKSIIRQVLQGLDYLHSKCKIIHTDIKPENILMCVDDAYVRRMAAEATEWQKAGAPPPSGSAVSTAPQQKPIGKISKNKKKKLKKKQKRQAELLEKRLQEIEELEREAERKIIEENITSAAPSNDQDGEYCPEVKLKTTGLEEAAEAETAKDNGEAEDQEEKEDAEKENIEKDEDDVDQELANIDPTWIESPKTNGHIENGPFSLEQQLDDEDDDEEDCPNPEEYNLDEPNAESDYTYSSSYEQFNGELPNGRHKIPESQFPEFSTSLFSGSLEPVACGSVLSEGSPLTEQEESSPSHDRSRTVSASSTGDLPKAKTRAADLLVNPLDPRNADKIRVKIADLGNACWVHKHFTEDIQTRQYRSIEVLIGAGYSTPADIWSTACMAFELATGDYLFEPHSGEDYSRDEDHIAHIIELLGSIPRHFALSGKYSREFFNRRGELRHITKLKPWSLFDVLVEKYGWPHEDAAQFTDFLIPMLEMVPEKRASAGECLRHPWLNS

[18] = target: Serine/threonine-protein kinase pim-1 (Homo sapiens) (UniProt P11309); assay: Inhibition of human PIM1 assessed as percent of control at 2000 nM by KINOMEscan assay relative to control; design: scale not given: the % may be the effect or the level left
[19] = target: NUAK family SNF1-like kinase 2 (Homo sapiens) (UniProt Q9H093); assay: Inhibition of human SNARK assessed as percent of control at 2000 nM by KINOMEscan assay relative to control; design: scale not given: the % may be the effect or the level left
[20] = target: STE20/SPS1-related proline-alanine-rich protein kinase (Homo sapiens) (UniProt Q9UEW8); assay: Inhibition of human STK39 assessed as percent of control at 2000 nM by KINOMEscan assay relative to control; design: scale not given: the % may be the effect or the level left
[21] = test system: Mast/stem cell growth factor receptor Kit (Homo sapiens), P10721 [D816H]; assay: Inhibition of human KIT D816H mutant assessed as percent of control at 2000 nM by KINOMEscan assay relative to control; design: scale not given: the % may be the effect or the level left
[22] = target: Tyrosine-protein kinase SYK (Homo sapiens) (UniProt P43405); assay: Inhibition of human SYK assessed as percent of control at 2000 nM by KINOMEscan assay relative to control; design: scale not given: the % may be the effect or the level left
[23] = target: TRAF2 and NCK-interacting protein kinase (Homo sapiens) (UniProt Q9UKE5); assay: Inhibition of human TNIK assessed as percent of control at 2000 nM by KINOMEscan assay relative to control; design: scale not given: the % may be the effect or the level left
Sequence of TRAF2 and NCK-interacting protein kinase (Homo sapiens) (Q9UKE5 whole entry, looked up): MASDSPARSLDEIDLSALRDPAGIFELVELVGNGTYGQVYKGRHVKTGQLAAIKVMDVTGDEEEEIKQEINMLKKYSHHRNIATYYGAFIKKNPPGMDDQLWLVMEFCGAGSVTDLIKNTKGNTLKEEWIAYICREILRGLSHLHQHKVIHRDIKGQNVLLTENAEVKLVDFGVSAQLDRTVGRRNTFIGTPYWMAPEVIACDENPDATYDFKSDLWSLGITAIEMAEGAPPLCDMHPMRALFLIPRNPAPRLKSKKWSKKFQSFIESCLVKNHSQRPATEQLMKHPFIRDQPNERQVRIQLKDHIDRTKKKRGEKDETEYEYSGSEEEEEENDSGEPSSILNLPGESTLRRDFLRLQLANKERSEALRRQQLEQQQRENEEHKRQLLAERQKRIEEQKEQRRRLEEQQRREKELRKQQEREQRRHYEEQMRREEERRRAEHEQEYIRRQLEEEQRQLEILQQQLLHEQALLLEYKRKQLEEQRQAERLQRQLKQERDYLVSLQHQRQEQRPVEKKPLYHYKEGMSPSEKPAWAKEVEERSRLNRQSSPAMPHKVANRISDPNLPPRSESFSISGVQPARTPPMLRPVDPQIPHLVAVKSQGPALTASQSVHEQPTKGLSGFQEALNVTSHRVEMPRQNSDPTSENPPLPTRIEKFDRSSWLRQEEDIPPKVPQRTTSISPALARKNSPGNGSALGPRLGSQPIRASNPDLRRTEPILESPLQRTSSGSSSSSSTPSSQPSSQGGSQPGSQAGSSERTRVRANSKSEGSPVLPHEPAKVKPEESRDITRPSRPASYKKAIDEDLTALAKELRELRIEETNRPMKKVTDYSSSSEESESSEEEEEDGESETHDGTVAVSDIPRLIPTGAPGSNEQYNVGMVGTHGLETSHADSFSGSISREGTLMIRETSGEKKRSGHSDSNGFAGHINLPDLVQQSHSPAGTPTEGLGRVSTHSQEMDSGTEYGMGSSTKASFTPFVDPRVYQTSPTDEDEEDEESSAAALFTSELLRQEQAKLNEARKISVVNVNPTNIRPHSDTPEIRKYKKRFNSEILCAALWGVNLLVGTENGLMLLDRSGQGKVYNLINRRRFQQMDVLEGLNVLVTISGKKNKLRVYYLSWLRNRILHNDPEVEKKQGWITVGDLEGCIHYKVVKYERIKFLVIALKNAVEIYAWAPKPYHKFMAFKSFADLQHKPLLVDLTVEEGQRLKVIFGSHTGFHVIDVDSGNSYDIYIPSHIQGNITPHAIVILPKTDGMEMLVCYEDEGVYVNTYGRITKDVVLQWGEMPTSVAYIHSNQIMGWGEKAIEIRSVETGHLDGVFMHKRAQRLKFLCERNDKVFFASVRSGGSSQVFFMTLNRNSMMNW

Myc-CaP [24] = assay: Antitumor activity against murine castration-resistant Myc-CaP cells xenografted in male FVB mouse assessed as suppression of tumor volume in presence of enzalutamide; assay type: functional
[25] = target: Cyclin-dependent kinase-like 1 (Homo sapiens) (UniProt Q00532); assay: Inhibition of human CDKL1 assessed as percent of control at 2000 nM by KINOMEscan assay relative to control; design: scale not given: the % may be the effect or the level left
[26] = target: Maternal embryonic leucine zipper kinase (Homo sapiens) (UniProt Q14680); assay: Inhibition of human MELK assessed as percent of control at 2000 nM by KINOMEscan assay relative to control; design: scale not given: the % may be the effect or the level left
Sequence of Maternal embryonic leucine zipper kinase (Homo sapiens) (Q14680 whole entry, looked up, canonical isoform): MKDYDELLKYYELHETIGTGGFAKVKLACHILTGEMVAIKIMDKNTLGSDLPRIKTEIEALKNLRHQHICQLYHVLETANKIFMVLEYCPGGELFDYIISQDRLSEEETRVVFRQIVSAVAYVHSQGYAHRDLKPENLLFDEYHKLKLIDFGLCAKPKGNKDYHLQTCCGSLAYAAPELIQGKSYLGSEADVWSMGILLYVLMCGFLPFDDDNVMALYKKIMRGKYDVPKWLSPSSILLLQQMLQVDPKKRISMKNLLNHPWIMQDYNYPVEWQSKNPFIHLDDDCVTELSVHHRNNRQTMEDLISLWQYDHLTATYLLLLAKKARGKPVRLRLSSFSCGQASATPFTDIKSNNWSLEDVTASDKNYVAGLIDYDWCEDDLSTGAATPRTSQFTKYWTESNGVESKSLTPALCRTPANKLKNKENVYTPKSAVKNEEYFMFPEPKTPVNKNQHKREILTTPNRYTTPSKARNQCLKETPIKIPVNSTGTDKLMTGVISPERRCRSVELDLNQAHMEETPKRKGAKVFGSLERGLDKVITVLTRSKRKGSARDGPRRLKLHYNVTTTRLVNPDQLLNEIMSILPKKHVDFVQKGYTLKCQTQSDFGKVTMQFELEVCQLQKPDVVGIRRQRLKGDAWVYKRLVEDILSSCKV

[27] = target: Casein kinase I isoform alpha (Homo sapiens) (UniProt P48729); assay: Inhibition of human CSNK1A1 assessed as percent of control at 2000 nM by KINOMEscan assay relative to control; design: scale not given: the % may be the effect or the level left; details: INHIBITOR
[28] = target: Atypical kinase COQ8B, mitochondrial (Homo sapiens) (UniProt Q96D53); assay: Inhibition of human ADCK4 assessed as percent of control at 2000 nM by KINOMEscan assay relative to control; design: scale not given: the % may be the effect or the level left
[29] = target: Megakaryocyte-associated tyrosine-protein kinase (Homo sapiens) (UniProt P42679); assay: Inhibition of human CTK assessed as percent of control at 2000 nM by KINOMEscan assay relative to control; design: scale not given: the % may be the effect or the level left
Myc-CaP [30] = assay: Inhibition of colony formation in murine castration-resistant Myc-CaP cells at 1 uM by clonogenic assay; assay type: functional; details: Mus musculus
[31] = target: Myotonin-protein kinase (Homo sapiens) (UniProt Q09013); assay: Inhibition of human DMPK assessed as percent of control at 2000 nM by KINOMEscan assay relative to control; design: scale not given: the % may be the effect or the level left

`CN(C)C(=O)c1ccc(N2CCCN(c3ccnc4sc(C(N)=O)c(N)c34)CC2)cc1` was tested, and the Activity [1] was 88% and 84%, the Activity [2] was 100% and the Activity [3] was 86% and 65%. The Activity [4] was 90% and 83%, the Activity [5] was 100% and 81% and the Activity [6] was 87% and 100%. The Activity [7] was 100% and 94%, the Activity [8] was 90% and 96% and the Activity [9] was 100% and 99%. The Activity [10] was 88% and 70%, the Activity [11] was 100% and the Activity [12] was 97% and 74%. For the same compound, the Activity [13] was 100% and 93%, the Activity [14] was 98% and 99% and the Activity [15] was 100% and 89%. For the same compound, the Activity [16] was 100%, the Activity [17] was 93% and 100% and the Activity [18] was 88% and 100%. For the same compound, the Activity [19] was 100% and 78%, the Activity [20] was 93% and 94% and the Activity [21] was 91% and 66%. For the same compound, the Activity [22] was 95% and 100%, the Activity [23] was 100% and 91% and the Activity (Myc-CaP [24]) was “Active”. The Activity [25] was 100% and 92%, the Activity [26] was 75% and 84% and the Activity [27] was 33% and 12%. The Activity [28] was 95% and 83%, the Activity [29] was 92% and 100% and the inhibition (Myc-CaP [30]) was “Active”. It also gave an Activity [31] of 97%.

— ChEMBL document CHEMBL4804286, “3-amino-4-(4-(4 (dimethylcarbamoyl) phenyl)-1,4-diazepan-1-yl) thieno [2,3-b] pyridine-2-carboxamide for use in cancer therapy and formulations comprising the same” (2020)
